Test results published in US20070128217A1 (priority 2003, published 2007).

How the values were obtained:
[1] = test system: antibodies in sera from SARS patients (sera 1a, 1b, 2, 6, 37, 62, London, SARS-yellow, SARS-green); format: binding, human; design: Binding of serum 6 to linear peptides of protein X1 of SARS-CoV Urbani / Binding of serum 37 to linear peptides of protein X1 of SARS-CoV Urbani / Binding of serum 6 to looped/cyclic peptide (PEPSCAN-ELISA) / Binding of serum 37 to looped/cyclic peptide (PEPSCAN-ELISA) / Binding of serum 37 to looped/cyclic peptides of protein X1 of SARS-CoV Urbani / Binding of serum 6 to linear peptides of protein X2 / Binding of serum 37 to linear peptides of protein X2 / Binding of serum 37 to looped/cyclic peptides of protein X2 of SARS-CoV Urbani / Binding of serum 6 to linear peptides of protein M of SARS-CoV Urbani / Binding of serum 37 to linear peptides of protein M of SARS-CoV Urbani / Binding of serum 6 to looped/cyclic peptides of protein M of SARS-CoV Urbani / Binding of serum 37 to looped/cyclic peptides of protein M of SARS-CoV Urbani / Binding of serum 6 to linear peptides of protein X3 of SARS-CoV Urbani / Binding of serum 37 to linear peptides of protein X3 of SARS-CoV Urbani / Binding of serum 37 to looped/cyclic peptides of protein X3 of SARS-CoV Urbani / Binding of serum 6 to linear peptides of protein X4 of SARS-CoV Urbani / Binding of serum 37 to linear peptides of protein X4 of SARS-CoV Urbani / Binding of serum 37 to looped/cyclic peptides of protein X4 of SARS-CoV Urbani / Binding of serum 6 to linear peptides of protein X5 of SARS-CoV Urbani / Binding of serum 37 to linear peptides of protein X5 of SARS-CoV Urbani / Binding of serum 37 to looped/cyclic peptides of protein X5 of SARS-CoV Urbani / Binding of serum 6 to linear peptides of protein N of SARS-CoV Urbani / Binding of serum 37 to linear peptides of protein N of SARS-CoV Urbani / Binding of serum 6 to linear peptide (PEPSCAN-ELISA) / Binding of serum 1a to looped/cyclic peptides of protein N of SARS-CoV Urbani / Binding of serum 1b to looped/cyclic peptides of protein N of SARS-CoV Urbani / Binding of serum 2 to looped/cyclic peptides of protein N of SARS-CoV Urbani / Binding of serum 6 to looped/cyclic peptides of protein N of SARS-CoV Urbani / Binding of serum 37 to looped/cyclic peptides of protein N of SARS-CoV Urbani / Binding of serum 62 to looped/cyclic peptides of protein N of SARS-CoV Urbani / Binding of serum London to looped/cyclic peptides of protein N of SARS-CoV Urbani / Binding of serum SARS-green to looped/cyclic peptides of protein N of SARS-CoV Urbani: unit not given here
[2] = test system: recombinant human anti-SARS-CoV antibody 03-018; format: binding; design: Binding of antibody 03-018 to linear peptides of the N protein of SARS-CoV Urbani / Binding of antibody 03-018 to looped/cyclic peptides of the N protein of SARS-CoV Urbani: unit not given here
[3] = test system: control sera (pooled serum of ten healthy LUMC hospital workers; commercial negative donor pooled serum from the Dutch bloodbank); format: binding, human; design: Binding of Control serum LUMC to linear peptides / Binding of Control serum Blood-bank to linear peptides / Binding of Control serum LUMC to looped peptides / Binding of Control Serum Blood-Bank to Looped peptides / Binding of Control serum LUMC to linear peptides of the protein M of SARS-CoV Urbani / Binding of Control serum Blood-bank to linear peptides of the protein M of SARS-CoV Urbani / Binding of Control serum LUMC to looped peptides of the protein M of SARS-CoV Urbani / Binding of Control Serum Blood-Bank to Looped peptides of the protein M of SARS-CoV Urbani: unit not given here
[4] = test system: rabbit serum obtained by immunizing a rabbit with the SARS-CoV strain Frankfurt 1; format: binding; design: Binding of a rabbit serum to linear peptides / Binding of a rabbit serum to looped peptides / Rabbit serum linear peptides / Rabbit serum looped peptides / Binding of a rabbit serum to linear peptides of protein N of SARS-CoV Urbani (Rabbit serum linear peptides) / Binding of a rabbit serum to looped/cyclic peptides of protein N of SARS-CoV Urbani (Rabbit serum looped peptides): unit not given here

Sequence	Binding of serum 1a to looped/cyclic peptides of protein N of SARS-CoV Urbani [1]	Binding of serum 1b to looped/cyclic peptides of protein N of SARS-CoV Urbani [1]	Binding of serum 2 to looped/cyclic peptides of protein N of SARS-CoV Urbani [1]	Binding of serum 6 to looped/cyclic peptides of protein N of SARS-CoV Urbani [1]	Binding of serum 37 to looped/cyclic peptides of protein N of SARS-CoV Urbani [1]	Binding of serum 62 to looped/cyclic peptides of protein N of SARS-CoV Urbani [1]	Binding of serum London to looped/cyclic peptides of protein N of SARS-CoV Urbani [1]	Binding of serum SARS-green to looped/cyclic peptides of protein N of SARS-CoV Urbani [1]	Binding of serum SARS-yellow to looped/cyclic peptides of protein N of SARS-CoV Urbani [1]	Binding of antibody 03-018 to linear peptides of the N protein of SARS-CoV Urbani [2]	Binding of antibody 03-018 to looped/cyclic peptides of the N protein of SARS-CoV Urbani [2]	Binding of Control Serum Blood-Bank to Looped peptides [3]	Binding of Control serum Blood-bank to linear peptides [3]	Binding of Control serum LUMC to linear peptides [3]	Binding of Control serum LUMC to looped peptides [3]	Binding of a rabbit serum to linear peptides of protein N of SARS-CoV Urbani (Rabbit serum linear peptides) [4]	Binding of a rabbit serum to looped/cyclic peptides of protein N of SARS-CoV Urbani (Rabbit serum looped peptides) [4]	Binding of serum 1a to linear peptides of protein N of SARS-CoV Urbani [1]	Binding of serum 1b to linear peptides of protein N of SARS-CoV Urbani [1]	Binding of serum 2 to linear peptides of protein N of SARS-CoV Urbani [1]	also measured
KSAAEASKKPRQKRT	0.2	0.1	0.2	0.1	0.4	0.2	0.3	0.1	0.1	0.1	0.1	0.4	0.7	0.7	0.4	0.1	0.2				Recognition of the peptide by sera of SARS-CoV infected individuals, and form (linear, looped/cyclic) in which it is recognized [1]: recognized in linear form
KTFPPTEPKKDKKKK	0.2	0.1	0.2	0.0	0.4	0.2	0.2	0.0	0.2	0.1	0.2					0.1	0.1	0.2	0.1	0.4	Binding of serum 6 to linear peptides of protein N of SARS-CoV Urbani [1]: 0.2; Binding of serum 37 to linear peptides of protein N of SARS-CoV Urbani [1]: 0.8; Binding of serum 62 to linear peptides of protein N of SARS-CoV Urbani [1]: 0.6; Binding of serum London to linear peptides of protein N of SARS-CoV Urbani [1]: 0.4; Binding of serum SARS-green to linear peptides of protein N of SARS-CoV Urbani [1]: 0.1; Binding of serum SARS-yellow to linear peptides of protein N of SARS-CoV Urbani [1]: 0.8; Control Serum Blood-Bank Looped peptides [3]: 0.3; Control serum Blood-bank linear peptides [3]: 0.6; Control serum LUMC linear peptides [3]: 0.7; Control serum LUMC looped peptides [3]: 0.3
LDRLNQLESKVSGKG	0.4	0.3	0.4	0.3	0.4	0.4	0.4	0.2	0.3	0.1	0.2	0.5	1.0	0.8	0.5	0.0	0.4				Binding of serum 1a to linear peptide (PEPSCAN-ELISA) [1]: 0.3; Binding of serum 1b to linear peptide (PEPSCAN-ELISA) [1]: 0.2; Binding of serum 2 to linear peptide (PEPSCAN-ELISA) [1]: 0.3; Binding of serum 6 to linear peptide (PEPSCAN-ELISA) [1]: 0.3; Binding of serum 37 to linear peptide (PEPSCAN-ELISA) [1]: 0.5; Binding of serum 62 to linear peptide (PEPSCAN-ELISA) [1]: 0.6; Binding of serum London to linear peptide (PEPSCAN-ELISA) [1]: 0.5; Binding of serum SARS-green to linear peptide (PEPSCAN-ELISA) [1]: 0.8; Binding of serum SARS-yellow to linear peptide (PEPSCAN-ELISA) [1]: 0.7
LIRQGTDYKHWPQIA	0.4	0.5	0.5	0.3	0.6	0.5	0.3	1.0	1.1	0.1	0.1	0.6	0.7	0.7	0.5	0.2	0.0	0.3	0.2	0.4	Binding of serum 6 to linear peptides of protein N of SARS-CoV Urbani [1]: 0.2; Binding of serum 37 to linear peptides of protein N of SARS-CoV Urbani [1]: 0.8; Binding of serum 62 to linear peptides of protein N of SARS-CoV Urbani [1]: 0.9; Binding of serum London to linear peptides of protein N of SARS-CoV Urbani [1]: 0.9; Binding of serum SARS-green to linear peptides of protein N of SARS-CoV Urbani [1]: 0.4; Binding of serum SARS-yellow to linear peptides of protein N of SARS-CoV Urbani [1]: 0.6
LLDRLNQLESKVSGK	0.2	0.1	0.2	0.1	0.4	0.4	0.3	0.0	0.1	0.1	0.2	0.3	0.7	0.6	0.2	0.6	0.1				Binding of serum 1a to linear peptide (PEPSCAN-ELISA) [1]: 0.2; Binding of serum 1b to linear peptide (PEPSCAN-ELISA) [1]: 0.1; Binding of serum 2 to linear peptide (PEPSCAN-ELISA) [1]: 0.3; Binding of serum 6 to linear peptide (PEPSCAN-ELISA) [1]: 0.2; Binding of serum 37 to linear peptide (PEPSCAN-ELISA) [1]: 0.7; Binding of serum 62 to linear peptide (PEPSCAN-ELISA) [1]: 0.6; Binding of serum London to linear peptide (PEPSCAN-ELISA) [1]: 0.5; Binding of serum SARS-green to linear peptide (PEPSCAN-ELISA) [1]: 0.4; Binding of serum SARS-yellow to linear peptide (PEPSCAN-ELISA) [1]: 0.7
